From patent US20240317721A1, “PYRAZOLYL DERIVATIVES AS INHIBITORS OF THE KRAS MUTANT PROTEIN” (NOVARTIS AG, priority 2021, published 2024) come the findings set out here.

The target of this test is KRasG12C (M1-K169, biotinylated on the N-terminus) (Homo sapiens (Human), UniProt P01116, G12C). Put plainly: Covalent competition assay: scintillation proximity assay (SPA) quantifying covalent modification of KRASG12C. Type of test: binding. The settings on record: competition with radiolabeled covalent probe (Compound B/Compound A), 2 hours incubation, 10 nM KRasG12C. The protocol:
Cells were harvested by centrifugation and frozen at −80° C. until further processing. […] The cells were lysed by 4 passages through an Avestin Emulsiflex at about 20000 psi and insoluble debris removed by centrifugation and filtered through a 0.45 µm Durapore membrane (Millipore). […] Eluted protein fractions were analyzed by Novex NuPage 4-12% PAGE. […] The protein in the flow through was subjected to a final polishing step on a HiLoad 16/60 Superdex 200 prep grade size-exclusion column pre-equilibrated with SEC-buffer (20 mM HEPES pH 7.4, 150 mM NaCl, 5 mM MgCl2, 1 µM GDP). Positive fractions were determined by PAGE (Novex NuPage 4-12% BisTris) analysis.
A scintillation proximity assay (SPA) was used to determine the potency of the compounds.
This assay measures the ability of the test compound to compete with the radiolabeled covalent probe for binding to and covalently modify KRASG12C.
(see above for synthesis of Compound A and Compound B). A serial dilution of the compounds to be tested is mixed with a fixed concentration of the radiolabeled covalent probe before incubation with KRASG12C:GDP as described below. KRASG12C can either be bound by the radiolabeled covalent probe (Compound B), resulting in light being emitted from the beads, or bound by covalent test compound preventing signal generation.
A 1/20 isotopic dilution of labeled (Compound B) and non-labeled covalent (Compound A) probe was prepared and added to all wells on the plate. The reaction was started by addition of KRasG12C (M1-K169, biotinylated on the N-terminus) to the compounds and incubated for 2 hours with continuous agitation allowing for full modification of KRasG12C with probe or test compounds. Final concentrations in an assay volume of 40 μL were 10 nM KRasG12C, 25 nM radio-ligand and 475 nM unlabelled ligand. The assay buffer contained 20 mM Tris-HCl pH 7.5 (Invitrogen), 150 mM NaCl (Sigma Aldrich), 0.1 mM MgCl2 (Sigma Aldrich), and 0.01% Tween-20 (Sigma Aldrich). Following addition of 50 μL of a 400 μg/mL suspension of streptavidin-coated YSi beads (Perkin Elmer), plates were incubated for a further 30 min with continuous agitation before reading the plates on a scintillation counter (Topcount NXT 384 (Packard).
Evaluation was carried out using assay data analysis software (such as the standard Novartis in-house Helios software application, Novartis Institutes for BioMedical Research, unpublished) using the methods described in Formenko et al., Robust Regression for high-throughput screening, Computer Methods and Programs in Biomedicine, 2006, 82, 31-37. Following normalization of activity values for the wells to % inhibition (% inhibition=[(high control−sample)/(high control−low control)]×100), IC50 fitting was carried out from the duplicate determinations present on each plate according to Formenko et al., 2006.
Evaluation can also be carried out using commercially available software which is designed to derive IC50 values using 4-parameter fits (e.g. GraphPad Prism, XL fit).
(In a scintillation proximity assay essentially only radioactivity close to the scintillant gives light.)
As to `C=CC(=O)N1CC2(CC(n3nc(N4CC[C@@H](CN(CCO)CCOC)CC4(C)C)c(-c4c(Cl)c(Cl)cc5[nH]ncc45)c3C)C2)C1` (single isomer, unassigned) [Example 253b], the IC50 came out at 8 nM.

In the case of `C=CC(=O)N1CC2(CC(n3nc(N4CC[C@@H](CN5CCN(C6COC6)CC5)CC4(C)C)c(-c4c(C)c(Cl)cc5[nH]ncc45)c3C)C2)C1` (single isomer, unassigned) [Example 244b], the IC50 came to 6 nM. As for `C=CC(=O)N1CC2(CC(n3nc(N4CCN(C[C@@H]5COCCO5)CC4(C)C)c(-c4c(Cl)c(Cl)cc5[nH]ncc45)c3C)C2)C1` (single isomer, unassigned) [Example 172b], the figure is 15 nM.

Regarding `C=CC(=O)N1CC2(CC(n3nc(N4CCC(CN5C[C@@H]6OCCO[C@@H]6C5)CC4(C)C)c(-c4c(Cl)c(Cl)cc5[nH]ncc45)c3C)C2)C1` (single isomer, unassigned) [Example 232a], the IC50 is more than 5000 nM. With `C=CC(=O)N1CC2(CC(n3cc(-c4c(Cl)c(C)cc5[nH]ncc45)c(N4CC[C@@H](CN5CCOCC5)CC4(C)C)n3)C2)C1` [Example 223, (R)-1-(6-(4-(5-chloro-6-methyl-1H-indazol-4-yl)-3-(2,2-dimethyl-4-(morpholinomethyl)piperidin-1-yl)-1H-pyrazol-1-yl)-2-azaspiro[3.3]heptan-2-yl)prop-2-en-1-one], the IC50 is 600 nM. The value for `C=CC(=O)N1CC2(CC(n3nc(N4CCC(C)(O)CC4(C)C)c(-c4c(Cl)c(C)cc5[nH]ncc45)c3C)C2)C1` (single isomer, unassigned) [Example 27b, 1-(6-(4-(5-chloro-6-methyl-1H-indazol-4-yl)-3-(4-hydroxy-2,2,4-trimethylpiperidin-1-yl)-5-methyl-1H-pyrazol-1-yl)-2-azaspiro[3.3]heptan-2-yl)prop-2-en-1-one] was 24 nM; that for `C=CC(=O)N1CC2(CC(n3nc(N4CC[C@@H](CN5CC6(CCCO6)C5)CC4(C)C)c(-c4c(Cl)c(Cl)cc5[nH]ncc45)c3C)C2)C1` (single isomer, unassigned) [Example 234b] was 9 nM. The value for `C=CC(=O)N1CC2(CC(n3nc(N4CC[C@@H](CN5CCCC6CN(C)C(=O)C65)CC4(C)C)c(-c4c(Cl)c(Cl)cc5[nH]ncc45)c3C)C2)C1` (single isomer, unassigned) [Example 262b, (4aR*,7aR*)-1-(((R)-1-(1-(2-acryloyl-2-azaspiro[3.3]heptan-6-yl)-4-(5,6-dichloro-1H-indazol-4-yl)-5-methyl-1H-pyrazol-3-yl)-2,2-dimethylpiperidin-4-yl)methyl)-6-methyloctahydro-7H-pyrrolo[3,4-b]pyridin-7-one] was 7 nM. The value for `C=CC(=O)N1CC2(CC(n3nc(N4CCN(C5COC5)CC4(C)C)c(-c4c(Cl)c(Cl)cc5[nH]ncc45)c3C)C2)C1` (single isomer, unassigned) [Example 73b, 1-(6-(4-(5,6-dichloro-1H-indazol-4-yl)-3-(2,2-dimethyl-4-(oxetan-3-yl)piperazin-1-yl)-5-methyl-1H-pyrazol-1-yl)-2-azaspiro[3.3]heptan-2-yl)prop-2-en-1-one] was 15 nM; that for `C=CC(=O)N1CC2(CC(n3nc(N4CC[C@@H](CN5CCN(C6COC6)C6COCC65)CC4(C)C)c(-c4c(Cl)c(Cl)cc5[nH]ncc45)c3C)C2)C1` (single isomer, unassigned) [Example 280b, 1-(6-(4-(5,6-dichloro-1H-indazol-4-yl)-3-((R)-2,2-dimethyl-4-(((4aS*,7aR*)-4-(oxetan-3-yl)hexahydrofuro[3,4-b]pyrazin-1(2H)-yl)methyl)piperidin-1-yl)-5-methyl-1H-pyrazol-1-yl)-2-azaspiro[3.3]heptan-2-yl)prop-2-en-1-one] was 7 nM; that for `C=CC(=O)N1CC2(CC(n3nc(N4CCC(N5C6CCC5COC6)CC4(C)C)c(-c4c(Cl)c(C)cc5[nH]ncc45)c3C)C2)C1` [Example 74a, 1-(6-(3-(4-((1R,5S)-3-oxa-8-azabicyclo[3.2.1]octan-8-yl)-2,2-dimethylpiperidin-1-yl)-4-(5-chloro-6-methyl-1H-indazol-4-yl)-5-methyl-1H-pyrazol-1-yl)-2-azaspiro[3.3]heptan-2-yl)prop-2-en-1-one] was more than 5000 nM.

Regarding `C=CC(=O)N1CC2(CC(n3nc(N4CC[C@@H](CN5CC6(CCCN6C6COC6)C5)CC4(C)C)c(-c4c(Cl)c(Cl)cc5[nH]ncc45)c3C)C2)C1` (single isomer, unassigned) [Example 272a], the IC50 is more than 5000 nM. As for `C=CC(=O)N1CC2(CC(n3nc(N4CCN(C(COC)COC)C[C@]4(C)CC)c(-c4c(Cl)c(C)cc5[nH]ncc45)c3C)C2)C1` (single isomer, unassigned) [Example 187a], the figure is 4200 nM; as for `C=CC(=O)N1CC2(CC(n3nc(N4CC[C@@H](CN(C)S(=O)(=O)N5CCN(C)CC5)CC4(C)C)c(-c4c(Cl)c(Cl)cc5[nH]ncc45)c3C)C2)C1` (single isomer, unassigned) [Example 304b], 10 nM. As for `C=CC(=O)N1CC2(CC(n3nc(N4CC[C@@H](CN5CCN(C6COC6)CC5)CC4(C)C)c(-c4c(Cl)c(Cl)cc5[nH]ncc45)c3C)C2)C1` (single isomer, unassigned) [Example 243b], the figure is 6 nM. In the case of `C=CC(=O)N1CC2(CC(n3nc(N4CCN(S(C)(=O)=O)CC4(C)C)c(-c4c(Cl)c(C)cc5[nH]ncc45)c3C)C2)C1` (single isomer, unassigned) [Example 126a, 1-(6-(4-(5-chloro-6-methyl-1H-indazol-4-yl)-3-(2,2-dimethyl-4-(methylsulfonyl)piperazin-1-yl)-5-methyl-1H-pyrazol-1-yl)-2-azaspiro[3.3]heptan-2-yl)prop-2-en-1-one], the IC50 is more than 50000 nM. As for `C=CC(=O)N1CC2(CC(n3nc(N4CC[C@@H](CN5CCC6COCC65)CC4(C)C)c(-c4c(C)c(Cl)cc5[nH]ncc45)c3C)C2)C1` (single isomer, unassigned) [Example 305b, 1-(6-(4-(6-chloro-5-methyl-1H-indazol-4-yl)-3-((R)-4-(((3aR*,6aR*)-hexahydro-1H-furo[3,4-b]pyrrol-1-yl)methyl)-2,2-dimethylpiperidin-1-yl)-5-methyl-1H-pyrazol-1-yl)-2-azaspiro[3.3]heptan-2-yl)prop-2-en-1-one], the figure is 19 nM; as for `C=CC(=O)N1CC2(CC(n3nc(N4CCN(C5COC5)C5COCC54)c(-c4c(Cl)c(C)cc5[nH]ncc45)c3C)C2)C1` (single isomer, unassigned) [Example 137b, 1-(6-(4-(5-chloro-6-methyl-1H-indazol-4-yl)-5-methyl-3-((4aS*,7aS*)-4-(oxetan-3-yl)hexahydrofuro[3,4-b]pyrazin-1(2H)-yl)-1H-pyrazol-1-yl)-2-azaspiro[3.3]heptan-2-yl)prop-2-en-1-one], 975 nM. As for `C=CC(=O)N1CC2(CC(n3nc(N4CC[C@@H](CN5CCOC6CS(=O)(=O)CC65)CC4(C)C)c(-c4c(Cl)c(Cl)cc5[nH]ncc45)c3C)C2)C1` (single isomer, unassigned) [Example 266a, 1-(6-(4-(5,6-dichloro-1H-indazol-4-yl)-3-((R)-4-(((4aR*,7aS*)-6,6-dioxidohexahydro-4H-thieno[3,4-b][1,4]oxazin-4-yl)methyl)-2,2-dimethylpiperidin-1-yl)-5-methyl-1H-pyrazol-1-yl)-2-azaspiro[3.3]heptan-2-yl)prop-2-en-1-one], the figure is 3100 nM.

Turning to `C=CC(=O)N1CC2(CC(n3nc(N4CCC5(CN(C)CCO5)CC4(C)C)c(-c4c(Cl)c(C)cc5[nH]ncc45)c3C)C2)C1` (single isomer, unassigned) [Example 207a, 1-(6-(4-(5-chloro-6-methyl-1H-indazol-4-yl)-5-methyl-3-(4,8,8-trimethyl-1-oxa-4,9-diazaspiro[5.5]undecan-9-yl)-1H-pyrazol-1-yl)-2-azaspiro[3.3]heptan-2-yl)prop-2-en-1-one], the IC50 was more than 5000 nM. On to `C=CC(=O)N1CC2(CC(n3nc(N4CCN(C(C)=O)CC4(C)C)c(-c4c(Cl)c(C)cc5[nH]ncc45)c3C)C2)C1` (single isomer, unassigned) [Example 18b, 1-(6-(3-(4-acetyl-2,2-dimethylpiperazin-1-yl)-4-(5-chloro-6-methyl-1H-indazol-4-yl)-5-methyl-1H-pyrazol-1-yl)-2-azaspiro[3.3]heptan-2-yl)prop-2-en-1-one], for which the IC50 came to 31 nM.

The IC50 is the concentration needed to halve the response being measured.
